How the values were obtained:
[1] = Hydrolysis kinetic studies by UV-Vis spectroscopy; assay type: physicochemical; parameters: key: —: no hydrolysis observed by UV-VIS; conditions: 298 K, methanol stock diluted with water
Method: Ultraviolet and Visible (UV-Vis) Spectroscopy: A Perkin-Elmer Lambda-16 UV-Vis spectrophotometer was used with 1-cm path-length quartz cuvettes (0.5 mL) and a PTP1 Peltier temperature controller. Spectra were processed using UVWinlab software for Windows' 95.
Kinetic Studies: Aliquots of stock solutions of the complexes to be tested (4-10 mM) in methanol were diluted to 500 μL with water, and the absorbance at selected wavelengths (determined by hydrolysis in an 19:1 mixture of water and methanol—see table 1 (λ)) was then recorded at 6 to 20 second intervals depending on the hydrolysis rate of each complex at 298 K. The hydrolysis rate constant kH2O for each complex was determined by computer fit of the absorbance/time data for each complex to the first-order rate equation (eq. 1), A=C0+C1e^−kt (1) where C0 and C1 are computer-fitted constants, and A is the absorbance corresponding to time t, and the results are reported in table 1 as the half life (t1/2). Cytoxicity Studies

[2] = test system: A549 (human lung carcinoma, ECACC 86012804); assay: Cytotoxicity A549, sulforhodamine B; assay type: cell-based; conditions: 24 h exposure, then 96 h in fresh medium, SRB
Method: Cell Line A549 (human lung carcinoma, ECACC 86012804) was maintained in medium comprising DMEM (Sigma) with 10% Fetal Bovine Serum (Invitrogen), 2 mM L-Glutamine (Invitrogen) and 1% Penicillin/Streptomycin (Invitrogen), in T-75 flasks (Costar). Cells were passaged at approximately 70-90% confluence (1:8 dilution) using 0.25% Trypsin/EDTA (Invitrogen).
(§1) Both cell lines were incubated at 37° C., 5% CO2, in high humidity.
(§2) A2780 carcinoma cells were seeded (150 μL) into 96 well plates (Nunc Maxisorp) at 5000 (±10%) cells per well and incubated at 37° C., 5% CO2 in high humidity for 48 hours. A549 carcinoma cells were seeded (150 μL) into 96 well plates (Nunc Maxisorp) at 2000 (±10%) cells per well and incubated at 37° C., 5% CO2 in high humidity for 24 hours.
(§3) The compounds to be tested were solubilised by sonication in DMSO (Fisher Scientific) to provide 20 mM solutions. Compounds were serially diluted with DMSO before diluting in cell culture medium to give concentrations four-fold greater than the final concentrations required in the assay. The dilutions of compound in culture medium were added to the cell plates (50 μL) in triplicates to achieve final concentrations of 100 μM, 50 μM, 10 μM, 5 μM, 1 μM and 0.1 μM. The final DMSO concentration in each well was 0.5% (v/v). The plates were incubated for 24 hours at 37° C., 5% CO2, in high humidity
After 24 hours incubation, the cells were washed (200 μL) twice with sterile phosphate buffered Saline (Sigma) and the cell culture medium replenished (200 μL). Plates were incubated at 37° C., 5% CO2, in high humidity for 96 hours. […] Dye was re-solubilised in (200 μL) 10 mM Tris buffer (Fisher Scientific) and the absorbance of each well read at both 565 nm and 690 nm using a BMG Fluorostar microplate reader. The reading at 690 nm was subtracted from the 565 nm reading, and the IC50 values determined by plotting the corrected absorbance value Vs. the compound concentration in the wells (XLfit version 4.0, ID Business Solutions Ltd). […]

[3] = test system: A2780 cells; assay: Cytotoxicity A2780 (1st method), cell counting; assay type: cell-based, human; conditions: 24 h cell exposure, cells counted on day 7
Method: A2780 (1st Method): A2780 cells were plated on day zero, and the complexes to be tested were added on day 3. The complex was removed on day 4 (i.e., 24 h cell exposure), and after growth in fresh medium in the absence of drug, the cells were counted on day 7. The complexes were stored in the dark at 277 K as a precaution against photochemical decomposition.

[4] = test system: A2780 (human ovarian carcinoma, ECACC 93112519); assay: Cytotoxicity A2780 (2nd method), sulforhodamine B; assay type: cell-based; conditions: 24 h exposure, then 96 h in fresh medium, SRB
Method: A2780 (2nd method) and A549: Cell line A2780 (human ovarian carcinoma, ECACC 93112519) was maintained in medium comprising RPMI-1640 (Sigma) with 5% Fetal Bovine Serum (Invitrogen), 2 mM L-Glutamine (Sigma) and 1% Penicillin/Streptomycin (Invitrogen), in T-75 flasks (Costar). Cells were passaged at approximately 75-90% confluence (1:8 dilution) using 0.25% Trypsin/EDTA (Invitrogen)
as §1, §2, §3
After 24 hours incubation, the cells were washed (200 μL) twice with sterile phosphate buffered Saline (Sigma) and the cell culture medium replenished (200 μL). Plates were incubated at 37° C., 5% CO2, in high humidity for 96 hours. After the incubation surviving cells were fixed by the addition of 50% (w/v) Trichloroacetic acid (50 μL) and incubated at 4° C. for 1 hour. Plates were washed three times with excess tap water and air-dried. Cells were dyed by the addition of (100 μL) 0.4% sulforhodamine B (Sigma) solution to the plates followed by five washes (200 μl) with 1% acetic acid solution to remove excess dye before air-drying. Dye was re-solubilised in (200 μL) 10 mM Tris buffer (Fisher Scientific) and the absorbance of each well read at both 565 nm and 690 nm using a BMG Fluorostar microplate reader. The reading at 690 nm was subtracted from the 565 nm reading, and the IC50 values determined by plotting the corrected absorbance value Vs. the compound concentration in the wells (XLfit version 4.0, ID Business Solutions Ltd). These are shown below in table 1

| Molecule | t1/2 (hydrolysis), dash with footnote a [1] | IC50 [2] | IC50 [3] | IC50 [4] |
| --- | --- | --- | --- | --- |
| [(η^6-C6(CH3)6)Ru(en)(pyridine)][PF6]2 [Compound 2] | —^a | – | – | – |
| [(η^6-C6(CH3)6)Ru(en)(SPh)][PF6] [Compound 4] | —^a | 38 µM | 23 µM | 23 µM |
| [(η^6-C6(CH3)6)Ru(en)(3-methylpyridine)][PF6]2 [Compound 9] | —^a | – | 50 µM | 50 µM |
| [(η^6-C6(CH3)6)Ru(en)(SCN)][PF6]2 [Compound 3] | – | – | – | 24 µM |
| F[P-](F)(F)(F)(F)F.NCCN.[Cl][Ru+].c1ccc(-c2ccccc2)cc1 [Compound C1, [(η^6-C6H5C6H5)Ru(en)Cl][PF6], reference compound] | – | 11 µM | 8 µM | 6.5 µM |
| [(η^6-C6H5C6H5)Ru(en)N3][PF6] [Compound 1] | – | 8.5 µM | 4 µM | 14 µM |
| Cc1c(C)c(C)c(C)c(C)c1C.F[P-](F)(F)(F)(F)F.NCCN.[Cl][Ru+] [Compound C2, [(η^6-C6(CH3)6)Ru(en)Cl][PF6], reference compound] | – | – | 9 µM | – |
| [(η^6-C6(CH3)6)Ru(en)(p-cyanopyridine)][PF6]2 [Compound 8] | – | – | 6 µM | – |
| [(η^6-C6(CH3)6)Ru(en)(3,5-dichloropyridine)][PF6]2 [Compound 6] | – | – | 23 µM | 18 µM |

Reference: patent publication US20080096846A1, “Arene Ruthenium (ll) Compounds And Their Use In Cancer Therapy” (priority 2004, published 2008)
